Results as given in the supplement of paper PMC8498969.

Experiments:
HEK293 [1] = assay: IC50 for inhibition of ZIKV NS1 production
Description: (§1)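 HEK293 cells in 1536-well plates were pre-treated with compound for 1 h, infected with ZIKV (MOI 1) for 24 h, and NS1 antigen (intra- plus extracellular) was measured by TR-FRET. Confirmation used 11-point 1:3 dilutions, and IC50 and maximal inhibition were fitted in GraphPad Prism.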

HEK293 [2] = assay: cytotoxicity IC50 (ATP content, uninfected cells); higher = less cytotoxic; conditions: infection: none
HEK293 [3] = assay: maximal inhibition of ZIKV NS1 production (% inhibition); higher = stronger antiviral effect
Description: as §1

| Compound | IC50 (HEK293 [1]) | cytotoxicity IC50 (HEK293 [2]) | maximal inhibition (HEK293 [3]) |
| --- | --- | --- | --- |
| Cn1c(=O)n(-c2ccc(C(C)(C)C#N)cc2)c2c3cc(-c4cnc5ccccc5c4)ccc3ncc21 | 3.2 µM | 0.53 µM | 82 |
| C/C=C(\C)C(=O)N[C@@H](c1ccccc1)[C@@H](O)C(=O)O[C@H]1C[C@@]2(O)[C@@H](OC(=O)c3ccccc3)[C@@H]3[C@]4(OC(C)=O)CO[C@@H]4C[C@H](O)[C@@]3(C)C(=O)[C@H](OC(C)=O)C(=C1C)C2(C)C | 0.22 µM | > 100 µM | 67 |
| CC[C@@]1(O)C(=O)OCc2c1cc1n(c2=O)Cc2cc3ccccc3nc2-1 | 0.026 µM | > 100 µM | 82 |
| CN(C)CCN(C)C(=O)c1ccc(NC(=O)Nc2ccc(-c3nc(N4CCOCC4)c4ccn(CC(F)(F)F)c4n3)cc2)cc1 | 2.9 µM | 3.4 µM | 76 |
| CN[C@@H]1C[C@H]2O[C@@](C)([C@@H]1OC)n1c3ccccc3c3c4c(c5c6ccccc6n2c5c31)C(=O)N[C@H]4O | 0.76 µM | 100 µM | 96 |
| COC(=O)Nc1nc2cc(C(=O)c3ccccc3)ccc2[nH]1 | 1 µM | > 100 µM | 69 |
| c1ccc2c(-c3cnn4cc(-c5ccc(N6CCNCC6)cc5)cnc34)ccnc2c1 | 6.1 µM | 80 µM | 106 |
| CCc1ccc(OCc2ccccc2C(=O)Nc2ccc3nc(C)cc(N)c3c2)cc1 | 14 µM | 11 µM | 104 |
| O=c1[nH]c2ccc(Cl)cc2c(N[C@@H]2CN3CCC2CC3)c1-c1nc2ccccc2[nH]1 | 0.41 µM | 3.3 µM | 100 |
| COc1ccc(OC)c(-c2nnc3ccc(-c4ccc(OC)c(O[C@@H]5CCOC5)c4)nn23)c1 | 40 µM | > 100 µM | 42 |
| CC(C)n1nc(-c2cc3cc(O)ccc3[nH]2)c2c(N)ncnc21 | 16 µM | 77 µM | 78 |
| COc1c(C)c2c(c(O)c1C/C=C(\C)CCC(=O)OCCN1CCOCC1)C(=O)OC2 | 0.53 µM | > 100 µM | 105 |
| O=C(Cc1ccc(-c2ccc(OCCN3CCOCC3)cc2)cn1)NCc1ccccc1 | 0.48 µM | 19 µM | 50 |
| S=C(SSC(=S)N1CCCCC1)N1CCCCC1 | 0.87 µM | 0.097 µM | 86 |
| O=C(Nc1ccncc1)C(=O)c1cn(Cc2ccc(Cl)cc2)c2ccccc12 | 1.3 µM | 70 µM | 39 |
| CO[C@H]1C(=O)[C@]2(C)[C@@H](OC)C[C@H]3OC[C@@]3(OC(C)=O)[C@H]2[C@H](OC(=O)c2ccccc2)[C@]2(O)C[C@H](OC(=O)[C@H](O)[C@@H](NC(=O)OC(C)(C)C)c3ccccc3)C(C)=C1C2(C)C | 1.8 µM | > 100 µM | 68 |
| COc1cc(OC)c(/C=C/S(=O)(=O)Cc2ccc(OC)c(NCC(=O)O)c2)c(OC)c1 | 1.4 µM | > 100 µM | 61 |
| CC[C@@H]([C@H](C)O)n1ncn(-c2ccc(N3CCN(c4ccc(OC[C@@H]5CO[C@@](Cn6cncn6)(c6ccc(F)cc6F)C5)cc4)CC3)cc2)c1=O | 18 µM | 9.7 µM | 73 |
| O=C(O)c1ccc2cc(-c3ccc(O)c(C45CC6CC(CC(C6)C4)C5)c3)ccc2c1 | 1.7 µM | 45 µM | 97 |
| OC(c1cc(C(F)(F)F)nc2c(C(F)(F)F)cccc12)C1CCCCN1 (stereo not given) | 18 µM | > 100 µM | 97 |
| O=C1NCCN1CCN1CCC(c2cn(-c3ccc(F)cc3)c3ccc(Cl)cc23)CC1 | 7.4 µM | 6.5 µM | 99 |
| O=C1NC(=O)[C@@H](c2cn3c4c(cccc24)CCC3)[C@@H]1c1c[nH]c2ccccc12 | 18 µM | 1.6 µM | 86 |
| COc1cc([C@@H]2c3cc4c(cc3[C@@H](O[C@@H]3O[C@@H]5CO[C@@H](c6cccs6)O[C@H]5[C@H](O)[C@H]3O)[C@H]3COC(=O)[C@H]23)OCO4)cc(OC)c1O | 1.2 µM | > 100 µM | 100 |
| Cc1[nH]nc2ccc(-c3cncc(OC[C@@H](N)Cc4ccccc4)c3)cc12 | 5.1 µM | 0.36 µM | 97 |
| COc1cccc2c(NCc3ccccc3)nc(-n3c(N)nc4ccccc43)nc12 | 50 µM | 30 µM | 100 |

| Compound | IC50 (HEK293 [1]) | cytotoxicity IC50 (HEK293 [2]) | maximal inhibition (HEK293 [3]) |
| --- | --- | --- | --- |
| CC[C@@]1(O)C(=O)OCc2c1cc1n(c2=O)Cc2cc3c(CN(C)C)c(O)ccc3nc2-1 | 0.051 µM | > 100 µM | 96 |
| CCCCCC(=O)O[C@]1(C(C)=O)CC[C@H]2[C@@H]3CCC4=CC(=O)CC[C@]4(C)[C@H]3CC[C@@]21C | 50 µM | 7.9 µM | 99 |
| Cc1ccc([N+](=O)[O-])cc1S(=O)(=O)N(C)/N=C/c1cnc2ccc(Br)cn12 | 0.62 µM | > 100 µM | 101 |
| O=c1[nH]c(=O)n([C@H]2C[C@H](O)[C@@H](CO)O2)cc1F | 0.92 µM | 60 µM | 98 |
| CNc1ccc2oc(C[C@H]3O[C@@]4(CC[C@H]3C)O[C@H]([C@H](C)C(=O)c3ccc[nH]3)[C@H](C)C[C@H]4C)nc2c1C(=O)O | 6.2 µM | 20 µM | 96 |
| CO[C@@H]1[C@@H](OC)[C@H](C)[C@@](O)(CC(=O)O)O[C@H]1[C@H](C)[C@H]1O[C@@]2(CC[C@@](C)([C@H]3CC[C@@](C)([C@@H]4O[C@@H]([C@H]5O[C@](C)(O)[C@H](C)C[C@@H]5C)C[C@@H]4O[C@@H]4C[C@H](OC)[C@@H](OC)[C@H](C)O4)O3)O2)C[C@H](O)[C@H]1C | 1.4 µM | 1.5 µM | 100 |
| C=CCn1c(=O)c2cnc(Nc3ccc(N4CCN(C)CC4)cc3)nc2n1-c1cccc(C(C)(C)O)n1 | 1.7 µM | > 100 µM | 99 |
| Clc1ccc(CCC(Cn2ccnc2)Sc2c(Cl)cccc2Cl)cc1 (stereo not given) | 39 µM | 16 µM | 97 |
| CCOC(=O)C1=C(C)NC(=S)NC1c1cccc(O)c1 (stereo not given) | 50 µM | > 100 µM | 89 |
| C[C@]12O[C@H](C[C@]1(O)CO)n1c3ccccc3c3c4c(c5c6ccccc6n2c5c31)CNC4=O | 1.7 µM | 15 µM | 58 |
| O=C1NCCc2[nH]c(-c3ccncc3)cc21 | 20 µM | > 100 µM | 85 |
| C[C@@H]1O[C@@H](O[C@H]2C[C@@H](O)[C@]3(CO)[C@H]4[C@H](O)C[C@]5(C)[C@@H](C6=CC(=O)OC6)CC[C@]5(O)[C@@H]4CC[C@]3(O)C2)[C@H](O)[C@H](O)[C@H]1O | 0.17 µM | 0.19 µM | 102 |
| N=C(N)NN=C(/C=C/c1ccc([N+](=O)[O-])o1)/C=C/c1ccc([N+](=O)[O-])o1 | 3.9 µM | 3.9 µM | 102 |
| CC[C@@]1(O)C(=O)OCc2c1cc1n(c2=O)Cc2cc3cc(O)ccc3nc2-1 | 0.047 µM | > 100 µM | 100 |
| CC1=C(CO)C(=O)O[C@@H]([C@@H](C)[C@H]2CC[C@H]3[C@@H]4C[C@H]5O[C@]56[C@@H](O)C=CC(=O)[C@]6(C)[C@H]4CC[C@]23C)C1 | 2.8 µM | 2.8 µM | 102 |
| CC(=O)O[C@H]1C(=O)[C@@]2(C)[C@H]([C@H](OC(=O)c3ccccc3)[C@]3(O)C[C@H](OC(=O)[C@H](O)[C@@H](NC(=O)c4ccccc4)c4ccccc4)C(C)=C1C3(C)C)[C@]1(OC(C)=O)CO[C@@H]1C[C@@H]2O | 0.089 µM | > 100 µM | 38 |
| O=C1C(Cl)=C(NCCN2CCOCC2)C(=O)c2ncccc21 | 16 µM | 20 µM | 104 |
| CC(C)C[C@H](NC(=O)[C@@H](NC(=O)c1cccc(-c2ccccc2)n1)[C@@H](C)O)B(O)O | 0.059 µM | 0.3 µM | 95 |
| O=C1c2ccccc2-[n+]2ccc3c([nH]c4ccccc43)c21 | 2 µM | 7.5 µM | 86 |
| NCC(=O)Nc1ccc(-n2nc(C(F)(F)F)cc2-c2ccc3c(ccc4ccccc43)c2)cc1 | 0.99 µM | 10 µM | 106 |
| CC1=C(O)C(=O)C=C2C1=CC=C1[C@@]2(C)CC[C@@]2(C)[C@@H]3C[C@](C)(C(=O)O)CC[C@]3(C)CC[C@]12C | 3.4 µM | 2.2 µM | 106 |
| C[C@H]1O[C@@H](O[C@H]2[C@@H](O)C[C@H](O[C@H]3[C@@H](O)C[C@H](O[C@H]4CC[C@@]5(C)[C@H](CC[C@@H]6[C@@H]5C[C@@H](O)[C@]5(C)[C@@H](C7=CC(=O)OC7)CC[C@]65O)C4)O[C@@H]3C)O[C@@H]2C)C[C@H](O)[C@@H]1O | 0.15 µM | 60 µM | 104 |
| CCOC(=O)C1(c2ccccc2)CCN(CCC(C#N)(c2ccccc2)c2ccccc2)CC1 | 6 µM | 9.2 µM | 105 |
| O=[N+]([O-])c1ccc2c(c1)S(=O)(=O)C=C2 | 11 µM | 7.2 µM | 103 |
| Cc1c2oc3c(C)ccc(C(=O)N[C@@H]4C(=O)N[C@H](C(C)C)C(=O)N5CCC[C@H]5C(=O)N(C)CC(=O)N(C)[C@@H](C(C)C)C(=O)O[C@@H]4C)c3nc-2c(C(=O)N[C@@H]2C(=O)N[C@H](C(C)C)C(=O)N3CCC[C@H]3C(=O)N(C)CC(=O)N(C)[C@@H](C(C)C)C(=O)O[C@@H]2C)c(N)c1=O | 0.35 µM | > 100 µM | 99 |
